In ChEMBL document CHEMBL3351438, “Further optimization of the M5 NAM MLPCN probe ML375: tactics and challenges” (Bioorg Med Chem Lett, 2015):
“And” between values parts separate entries of the source, which are not always exact repeats. Identical values can stand only once. The source made the active and inactive calls. The rule behind the calls is not given here.

Experiments:
[1] = target: T1, Muscarinic acetylcholine receptor M5 (Homo sapiens, UniProt P08912); experiment: Negative allosteric modulation of human muscarinic acetylcholine receptor M5 expressed in CHO cells assessed as inhibition of acetylcholine-induced calcium mobilization incubated for 150 secs prior to acetylcholine induction by Fluo4AM staining-based fluorescence assay
T1 sequence (P08912 whole entry): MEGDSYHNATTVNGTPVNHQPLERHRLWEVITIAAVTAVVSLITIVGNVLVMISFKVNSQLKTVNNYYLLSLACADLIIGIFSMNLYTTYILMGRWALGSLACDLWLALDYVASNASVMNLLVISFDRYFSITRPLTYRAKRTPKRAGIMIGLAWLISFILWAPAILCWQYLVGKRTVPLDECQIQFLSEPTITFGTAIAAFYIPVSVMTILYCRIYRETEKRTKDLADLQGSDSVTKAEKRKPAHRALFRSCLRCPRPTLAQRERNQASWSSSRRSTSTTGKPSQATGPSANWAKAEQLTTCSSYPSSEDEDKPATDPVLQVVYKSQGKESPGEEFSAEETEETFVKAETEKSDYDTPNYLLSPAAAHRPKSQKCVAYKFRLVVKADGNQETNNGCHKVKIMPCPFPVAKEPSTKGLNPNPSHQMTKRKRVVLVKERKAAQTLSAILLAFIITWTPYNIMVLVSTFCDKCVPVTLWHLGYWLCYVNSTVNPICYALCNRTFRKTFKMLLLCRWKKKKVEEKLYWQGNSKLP

[2] = Intrinsic clearance in human hepatocytes; type: ADME, cell-based, Hepatocyte; conditions: read-out: CLH
[3] = Intrinsic clearance in rat liver microsomes; type: ADME; conditions: read-out: CLH
[4] = Intrinsic clearance in rat hepatocytes; type: ADME, cell-based, Hepatocyte; conditions: read-out: CLH
Plasma [5] = experiment: (§1) Fraction unbound in Sprague-Dawley rat plasma; type: ADME, cell-free
Plasma [6] = experiment: (§2) Fraction unbound in human plasma; type: ADME, cell-free
[7] = Fraction unbound in Sprague-Dawley rat brain; type: ADME, tissue-based; conditions: brain tissue
[8] = as §1; type: ADME, cell-free; conditions: Sprague-Dawley
[9] = target: T2, Muscarinic acetylcholine receptor M5 (Rattus norvegicus, UniProt P08911); experiment: Negative allosteric modulation of rat muscarinic acetylcholine receptor M5 expressed in CHO cells assessed as inhibition of acetylcholine-induced calcium mobilization incubated for 150 secs prior to acetylcholine induction by Fluo4AM staining-based fluorescence assay; type: functional, cell-based
T2 sequence (P08911 whole entry): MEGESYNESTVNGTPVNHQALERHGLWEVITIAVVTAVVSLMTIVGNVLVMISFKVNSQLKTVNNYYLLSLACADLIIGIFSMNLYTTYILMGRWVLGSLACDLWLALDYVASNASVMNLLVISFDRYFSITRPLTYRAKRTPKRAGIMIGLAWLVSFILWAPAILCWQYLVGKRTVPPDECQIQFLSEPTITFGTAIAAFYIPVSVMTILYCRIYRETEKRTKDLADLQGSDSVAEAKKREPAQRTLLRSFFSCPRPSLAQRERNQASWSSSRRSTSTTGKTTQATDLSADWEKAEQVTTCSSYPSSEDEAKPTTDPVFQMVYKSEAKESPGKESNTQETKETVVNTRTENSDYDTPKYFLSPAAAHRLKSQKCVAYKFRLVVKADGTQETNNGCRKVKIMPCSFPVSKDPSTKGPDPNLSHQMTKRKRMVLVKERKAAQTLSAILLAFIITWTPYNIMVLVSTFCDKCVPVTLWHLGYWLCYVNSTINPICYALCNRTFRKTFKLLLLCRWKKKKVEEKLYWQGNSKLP

[10] = Intrinsic clearance in human liver microsomes; type: ADME; conditions: read-out: CLH
[11] = Half life in Sprague-Dawley rat at 1 mg/kg, iv; type: ADME, organism-based; design: dose 1 mg/kg, route intravenous; conditions: in vivo
[12] = Volume of distribution at steady state in Sprague-Dawley rat at 1 mg/kg, iv; type: ADME, organism-based; design: dose 1 mg/kg, route intravenous; conditions: in vivo, read-out: Vdss
[13] = Mean residence time in Sprague-Dawley rat at 10 mg/kg, po; type: ADME, organism-based; design: dose 10 mg/kg, route oral; conditions: in vivo
[14] = Tmax in Sprague-Dawley rat at 10 mg/kg, po; type: ADME, organism-based; design: dose 10 mg/kg, route oral; conditions: in vivo
Rattus norvegicus [15] = experiment: AUC (0 to infinity) in Sprague-Dawley rat at 10 mg/kg, po; type: ADME, organism-based, Plasma; design: time infinity, dose 10 mg/kg, route oral; conditions: in vivo
Rattus norvegicus [16] = experiment: Oral bioavailability in Sprague-Dawley rat at 10 mg/kg; type: ADME, organism-based; conditions: in vivo
[17] = AUC (0 to infinity) in Sprague-Dawley rat at 10 mg/kg, po pretreated with 56.6 mg/kg, po 1-aminobenzotriazole; type: ADME, organism-based; design: dose 10 mg/kg, time infinity, route oral; conditions: plasma
[18] = Oral bioavailability in Sprague-Dawley rat at 10 mg/kg pretreated with 56.6 mg/kg, po 1-aminobenzotriazole; type: ADME, organism-based; conditions: in vivo
[19] = Cmax in Sprague-Dawley rat in plasma at 10 mg/kg, po pretreated with 56.6 mg/kg, po 1-aminobenzotriazole; type: ADME, organism-based; design: dose 10 mg/kg, route oral
Plasma [20] = experiment: fCmax in Sprague-Dawley rat plasma at 10 mg/kg, po pretreated with 56.6 mg/kg, po 1-aminobenzotriazole; type: ADME, organism-based; conditions: in vivo
[21] = Cmax in Sprague-Dawley rat in brain at 10 mg/kg, po pretreated with 56.6 mg/kg, po 1-aminobenzotriazole; type: ADME, organism-based; design: dose 10 mg/kg, route oral
[22] = as §2; type: ADME, cell-free
[23] = target: T3, Muscarinic acetylcholine receptor M5 (Homo sapiens) (UniProt P08912); conditions: CHO
T3 sequence (whole entry): T1 sequence (P08912 whole entry)

SMILES | IC50 [1] | further results
CN(C)c1ccc(C(=O)N2CCN3C(=O)c4ccccc4C23c2ccc(Cl)cc2)cc1 (racemic) | > 10000 nM | 
[2H]C([2H])([2H])Oc1ccc([C@@]23c4ccccc4C(=O)N2CCN3C(=O)c2cc(F)c(F)c(F)c2)cc1C |  | CLint scaled [2]: 16.3 mL/min/kg; CLint scaled [3]: 275 mL/min/kg; CLint scaled [4]: 55.8 mL/min/kg
O=C(c1ccc(F)c(F)c1)N1CCN2C(=O)c3ccccc3C12C1CCC1 (racemic) | > 10000 nM | 
CC(C)Oc1ccc(C(=O)N2CCN3C(=O)c4ccccc4C23c2ccc(OC(C)C)cc2)cc1 (racemic) | 1900 nM | 
CC(C)Oc1ccc(C23c4ccccc4C(=O)N2CCN3C(=O)c2ccc(F)c(F)c2)cc1 (racemic) | > 30000 nM | 
O=C(c1ccc(F)c(F)c1)N1CCN2C(=O)c3ccccc3C12C1CCCCC1 (racemic) | 2100 nM | Fu (Plasma [5]): 0.016; Fu (Plasma [6]): 0.008
COc1cc(C23c4ccccc4C(=O)N2CCN3C(=O)c2ccc(F)c(F)c2)ccc1C (racemic) | 1300 nM | 
COc1ccc(C23c4ccccc4C(=O)N2CCN3C(=O)c2ccc(F)c(F)c2)cc1C (racemic) | 1200 nM | 
CCOc1ccc(C(=O)N2CCN3C(=O)c4ccccc4C23c2ccc(Cl)cc2)cc1 (racemic) | 850 nM | 
O=C(c1ccc(F)c(F)c1)N1CCN2C(=O)c3ccccc3C12c1ccc(Oc2ccccc2)cc1 (racemic) | > 10000 nM | 
O=C(c1ccc(F)nc1)N1CCN2C(=O)c3ccccc3C12c1ccc(Cl)cc1 (racemic) | > 10000 nM | 
O=C(c1ccnc(F)c1)N1CCN2C(=O)c3ccccc3C12c1ccc(Cl)cc1 (racemic) | 5800 nM | 
CC(C)Oc1ccc(C23c4ccccc4C(=O)N2CCN3C(=O)c2cc(F)c(F)c(F)c2)cc1 (racemic) | 2400 nM | 
COc1ccc(C23c4ccccc4C(=O)N2CCN3C(=O)c2ccc(OC(C)C)cc2)cc1C (racemic) | 1300 nM | 
COc1ccc(C23c4ccccc4C(=O)N2CCN3C(=O)c2ccc(F)c(F)c2)cc1Cl (racemic) | 5500 nM | 
COc1cccc(C23c4ccccc4C(=O)N2CCN3C(=O)c2ccc(F)c(F)c2)c1 (racemic) | 1600 nM | 
O=C(c1cc(F)c(F)c(F)c1)N1CCN2C(=O)c3ccccc3C12c1ccc(Cl)cc1 (racemic) | 610 nM | 
COc1ccc(C23c4ccccc4C(=O)N2CCN3C(=O)c2cc(F)c(F)c(F)c2)cc1F (racemic) | > 30000 nM | 
COc1ccc([C@@]23c4ccccc4C(=O)N2CCN3C(=O)c2cc(F)c(F)c(F)c2)cc1C | 264 nM | fraction unbound [7]: 0.006; fraction unbound [8]: 0.031; IC50 ([9]; read-out: IC50): 516 nM; CLint scaled [10]: 359 mL/min/kg; CLint scaled [2]: 19.8 mL/min/kg; CLint scaled [3]: 332 mL/min/kg; CLint scaled [4]: 57.8 mL/min/kg; half-life [11]: 1.08 h; Vd [12]: 4.9 L/kg; MRT [13]: 6.5 h; Tmax [14]: 2.8 h; AUC (Rattus norvegicus [15]): 3660 ng·h/mL; F (Rattus norvegicus [16]): 2%; AUC(0-inf) [17]: 17700 ng·h/mL; bioavailability [18]: 9.5%; Cmax [19]: 2 µM; fCmax (Plasma [20]): 62 nM; Cmax [21]: 5.4 µM
COc1ccc(C23c4ccccc4C(=O)N2CCN3C(=O)c2ccc(OC(C)C)cc2)cc1F (racemic) | 3200 nM | 
O=C(c1ccc(F)c(F)c1)N1CCN2C(=O)c3ccccc3C12C1CC1 (racemic) | > 10000 nM | 
CCOc1ccc(C23c4ccccc4C(=O)N2CCN3C(=O)c2ccc(F)c(F)c2)cc1 (racemic) | 3200 nM | 
O=C(c1ccc(F)c(F)c1)N1CCN2C(=O)c3ccccc3C12c1ccncc1 (racemic) | > 10000 nM | 
O=C(c1ccnnc1)N1CCN2C(=O)c3ccccc3C12c1ccc(Cl)cc1 (racemic) | > 10000 nM | 
COc1ccc(C23c4ccccc4C(=O)N2CCN3C(=O)c2cc(F)c(F)c(F)c2)cc1C (racemic) | 510 nM | IC50 ([9]; read-out: IC50): 963 nM
COc1cccc(C(=O)N2CCN3C(=O)c4ccccc4C23c2ccc(Cl)cc2)c1 (racemic) | 6600 nM | 
COc1cc(C23c4ccccc4C(=O)N2CCN3C(=O)c2cc(F)c(F)c(F)c2)ccc1C (racemic) | 900 nM | 

SMILES | IC50 [1] | further results
CCOc1ccc(C23c4ccccc4C(=O)N2CCN3C(=O)c2ccc(OC(C)C)cc2)cc1 (racemic) | 4100 nM | 
COc1cc(C23c4ccccc4C(=O)N2CCN3C(=O)c2ccc(F)c(F)c2)ccc1Cl (racemic) | 2000 nM | 
COc1ccc([C@]23c4ccccc4C(=O)N2CCN3C(=O)c2cc(F)c(F)c(F)c2)cc1C |  | IC50 ([1]; cho): Not Active; fraction unbound [22]: 0.013; IC50 ([9]; cho): Not Active; pIC50 [23]: inactive
COc1ccc(C(=O)N2CCN3C(=O)c4ccccc4C23c2ccc(Cl)cc2)cc1 (racemic) | 1800 nM | 
COc1cc(C23c4ccccc4C(=O)N2CCN3C(=O)c2ccc(OC(C)C)cc2)ccc1Cl (racemic) | 6400 nM | 
COc1ccc(C23c4ccccc4C(=O)N2CCN3C(=O)c2ccc(OC(C)C)cc2)cc1Cl (racemic) | 3300 nM | 
COc1ccc(C23c4ccccc4C(=O)N2CCN3C(=O)c2cc(F)c(F)c(F)c2)cc1Cl (racemic) | 1400 nM | 
COc1cc(C23c4ccccc4C(=O)N2CCN3C(=O)c2cc(F)c(F)c(F)c2)ccc1F (racemic) | 700 nM | 
CCOc1ccc(C23c4ccccc4C(=O)N2CCN3C(=O)c2cc(F)c(F)c(F)c2)cc1 (racemic) | > 30000 nM | 
O=C(c1ccc(F)c(F)c1)N1CCN2C(=O)c3ccccc3C12c1ccccn1 (racemic) | > 10000 nM | 
COc1ccc(C23c4ccccc4C(=O)N2CCN3C(=O)c2ccc(F)c(F)c2)cc1 (racemic) | 1300 nM | Fu (Plasma [5]): 0.064; Fu (Plasma [6]): 0.037
COc1cc(C23c4ccccc4C(=O)N2CCN3C(=O)c2ccc(F)c(F)c2)ccc1F (racemic) | 2700 nM | 
CC(C)Oc1ccc(C(=O)N2CCN3C(=O)c4ccccc4C23c2ccc3c(c2)OCO3)cc1 (racemic) | 1100 nM | 
O=C(c1cc(F)nc(F)c1)N1CCN2C(=O)c3ccccc3C12c1ccc(Cl)cc1 (racemic) | > 10000 nM | 
O=C(c1ccc(F)c(F)c1)N1CCN2C(=O)c3ccccc3C12c1cccnc1 (racemic) | > 10000 nM | 
COc1ccccc1C(=O)N1CCN2C(=O)c3ccccc3C12c1ccc(Cl)cc1 (racemic) | > 10000 nM | 
O=C(c1cc(F)c(F)c(F)c1)N1CCN2C(=O)c3ccccc3C12c1ccc2c(c1)OCO2 (racemic) | 1000 nM | 
COc1ccc(C23c4ccccc4C(=O)N2CCN3C(=O)c2ccc(F)c(F)c2)cc1F (racemic) | 3300 nM | 
COc1cc(C23c4ccccc4C(=O)N2CCN3C(=O)c2cc(F)c(F)c(F)c2)ccc1Cl (racemic) | 1600 nM | 
O=C(c1ccc(F)c(F)c1)N1CCN2C(=O)c3ccccc3C12c1ccc2c(c1)OCO2 (racemic) | 1300 nM | 
O=C(c1ccc(F)c(F)c1)N1CCN2C(=O)c3ccccc3C12C1CCOCC1 (racemic) | > 10000 nM | 
CC(C)Oc1ccc(C(=O)N2CCN3C(=O)c4ccccc4C23c2ccc(Cl)cc2)cc1 (racemic) | 790 nM | 
COc1ccccc1C12c3ccccc3C(=O)N1CCN2C(=O)c1ccc(F)c(F)c1 (racemic) | 5620 nM and 5500 nM | 
O=C(c1ccc(F)c(F)c1)N1CCN2C(=O)c3ccccc3C12C1CCCC1 (racemic) | 2400 nM | 
COc1cc(C23c4ccccc4C(=O)N2CCN3C(=O)c2ccc(OC(C)C)cc2)ccc1C (racemic) | 2200 nM | 
COc1cc(C23c4ccccc4C(=O)N2CCN3C(=O)c2ccc(OC(C)C)cc2)ccc1F (racemic) | 1300 nM | 
O=C(c1ccc(F)c(F)c1)N1CCN2C(=O)c3ccccc3C12c1ccc(Cl)cc1 (racemic) |  | Fu (Plasma [5]): 0.031; Fu (Plasma [6]): 0.015
